Source: patent publication US5580854A, “Substrate-related peptidyl-aldehyde inhibitors of the proteolytic activity of the multicatalytic proteinase complex” (Mount Sinai School of Medicine of The City University of …, priority 1994, dated 1996)
Where two headings read alike, the source gives them in different places. One block for each compound: values may come before it. Peptide text beside a SMILES is read from it. * marks the point of attachment. Cbz = O=C(OCc1ccccc1)*

Legend:
[1] = molecular target: T1, multicatalytic proteinase complex (MPC) (Bos taurus, UniProt Q2TBP0+Q32KL2+Q3MHN0); assay: β-casein degradation by the MPC, HPLC; format: biochemical, bovine; conditions: for inhibition at 50 µM: 50 μM inhibitor, MPC 5.0 μg
T1 construct: The MPC was isolated from frozen bovine pituitaries; tissue PelFreeze, Inc. (Rogers, Ark.) (supplier of the tissue; the enzyme was purified in house); host or cells: bovine pituitaries
Procedure: (§1) The MPC was isolated from frozen bovine pituitaries, obtained from PelFreeze, Inc. (Rogers, Ark.) essentially as described in Orlowski & Michaud, Biochemistry 28:9270-9277 (1989), incorporated herein by reference.
(§2) In vitro protein degrading activity of the MPC, and the effects of the various inhibitors of the present invention on such activity, was determined using β-casein and histone H3 as proteolytic substrates. For determining protein degrading activity in the presence and absence of inhibitors, incubation mixtures contained Tris-HCl buffer (0.05M, pH 8.0), β-casein or histone H3, 20 mM Mg^2+ where indicated, and inhibitor dissolved in dimethylsulfoxide, where indicated. In control samples, the inhibitor was replaced by an equal volume of dimethylsulfoxide alone.
(§3) In order to measure proteolysis by the MPC, and its inhibition by the inhibitors of the invention, aliquots of the reaction mixtures were removed after various incubation times and subjected to HPLC on a Deltapak column (C4; 5 μm; 300 A; 3.9×150 mm Waters). Elution of histone H3 was carried out with a linear gradient over 30 min. established between 30 and 50% acetonitrile (v/v) in water containing 0.1% trifluoroacetic acid (v/v) at a flow rate of 1 ml/min. Elution of β-casein was carried with a linear gradient established between 10 and 45% acetonitrile (v/v) in water containing 0.1% trifluoroacetic acid (v/v). The rate of protein degradation was determined by measuring the decrease of the peak height of the protein compared with controls in which the enzyme was omitted. Alternatively degradation of the proteins was determined by integrating the area under the peak of the protein at time zero and determining the decrease of the area after incubation with the enzyme.
FIG. 1 depicts the inhibition of β-casein degradation by Cbz-Gly-Pro-Ala-Leu-CHO. HPLC analyses were carried out on samples that had been incubated in the absence and presence of the inhibitor. Incubation mixtures contained β-casein (200 μg), 20 mM Mg^2+, MPC (30 μg) and various concentrations of, inhibitor, if used, in 2 μl of Me2 SO. […]

[2] = molecular target: T2, ChT-L component of the multicatalytic proteinase complex (MPC) (Bos taurus, UniProt Q32KL2); assay: ChT-L activity of the MPC with Cbz-Gly-Gly-Leu-pNA; Ki by Dixon plots; format: biochemical, bovine; conditions: for Ki: substrate Cbz-Gly-Gly-Leu-pNA (0.1 to 0.4 MM), mean of 3 to 6 experiments ± SEM
T2 construct: The MPC was isolated from frozen bovine pituitaries; tissue PelFreeze, Inc. (Rogers, Ark.) (supplier of the tissue; the enzyme was purified in house); host or cells: bovine pituitaries
Source text: as §1
(§4) The substrates Cbz-Gly-Gly-Leu-pNA, Cbz-D-Ala-Leu-Arg-2NA and Cbz-Leu-Leu-Glu-2NA were used to determine the activities of the ChT-L, T-L and PGPH components of the MPC, respectively, as previously described by Wilk and Orlowski, J. Neurochem. 35:1172-1182 (1980) and J. Neurochem 40:842-849 (1983), where pNA is p-nitroaniline and 2NA is 2-naphthylamide.The rate of release of the chromogenic group (aromatic amine) was measured after diazotization (Goldbarg & Rutenburg, Cancer 11:283-291 (1958) Bratton & Marshall, J. Biol. Chem. 128:537-550 (1939)).
(§5) Reaction mixtures contained 0.4 to 0.8 mM substrate, Tris-HCl buffer (0.05M; pH 8.0) and enzyme (1 to 3 μg) in a final volume of 0.25 ml. Incubations were at 37° C. The reactions were stopped by addition of an equal volume of 10% trichloroacetic acid and diazotization was then carried out.
(§6) Inhibition constant (K1) values for the inhibitors of the present invention towards the various proteolytic activities of the MPC were determined by the method of Dixon, Biochem. J. 55:170-171 (1953). Plots of 1/v vs [I] were made at three (3) different synthetic substrate concentrations and six (6) different inhibitor concentrations [I]. Linear regression analysis gave generally correlation coefficients better than 0.99.
(§7) Inhibition was tested with and without preincubation of the MPC with the inhibitors of the invention. No increase in inhibition was observed after preincubation of the enzyme with the inhibitor for up to 30 min, indicating absence of slow binding phenomena and a rapid equilibration between enzyme and inhibitor.
(§8) Table II provides a summary of the Ki measurements for the various peptidyl aldehydes of the invention synthesized in accordance with Examples 2 and 3.

[3] = molecular target: T3, PGPH component of the multicatalytic proteinase complex (MPC) (Bos taurus, UniProt Q3MHN0); assay: PGPH activity of the MPC with Cbz-Leu-Leu-Glu-2NA; IC50; format: biochemical, bovine
T3 construct: The MPC was isolated from frozen bovine pituitaries; tissue PelFreeze, Inc. (Rogers, Ark.) (supplier of the tissue; the enzyme was purified in house); host or cells: bovine pituitaries
Source text: as §1, §4, §5
Due to the sigmoidal relationship between reaction rate and substrate concentration for the PGPH activity, only IC50 values (inhibitor concentration giving 50% inhibition) at a substrate concentration of 0.64 mM were determined. […] Some inhibition of the ChT-L activity was also observed, although the Ki for this component was almost 20 times higher than that for the other three activities. […] Indeed, at the concentrations used, each of the inhibitors produced some activation of the T-L activity (data not shown).

[4] = molecular target: T4, SNAAP component of the multicatalytic proteinase complex (MPC) (Bos taurus, UniProt Q2TBP0+Q32KL2+Q3MHN0); assay: Activity of the SNAAP component of the MPC, coupled two step reaction with aminopeptidase N; Ki by Dixon plots; format: biochemical, bovine; conditions: substrate Cbz-Gly-Pro-Ala-Gly-Gly-pAB (1 to 4 mill); mean of 3 to 6 experiments ± SEM
T4 construct: The MPC was isolated from frozen bovine pituitaries; tissue PelFreeze, Inc. (Rogers, Ark.) (supplier of the tissue; the enzyme was purified in house); host or cells: bovine pituitaries
Source text: as §1
(§9) Cbz-Gly-Pro-Ala-Leu-Gly-pAB and Cbz-Gly-Pro-Ala-Gly-Gly-pAB, where pAB is p-aminobenzoate, were used as convenient substrates for the determination of the activity of the BrAAP and SNAAP components respectively. The BrAAP component cleaves exclusively the Leu-Gly bond in Cbz-Gly-Pro-Ala-Leu-Gly-pAB, whereas the SNAAP component cleaves the Gly-Gly bond in Cbz-Gly-Pro-Ala-Gly-Gly-pAB.
(§10) A coupled two step reaction in the presence of excess aminopeptidase N (AN) was used for the determination of the BrAAP and SNAAP activities as described previously (Orlowski et al., Biochemistry 32:1563-1572 (1993)). Aminopeptidase N was purified from hog kidneys as described by Pfleiderer, Meth. Enzymol. 19:514-521 (1970) and freed from the contaminating metalloendopeptidase (EC 3.4.24.11) as previously described (Almenoff & Orlowski, Biochemistry 22:590-599 (1983)).
as §6, §7, §8

[5] = molecular target: T5, BrAAP component of the multicatalytic proteinase complex (MPC) (Bos taurus, UniProt Q2TBP0+Q32KL2+Q3MHN0); assay: Activity of the BrAAP component of the MPC, coupled two step reaction with aminopeptidase N; Ki by Dixon plots; format: biochemical, bovine
T5 construct: The MPC was isolated from frozen bovine pituitaries; tissue PelFreeze, Inc. (Rogers, Ark.) (supplier of the tissue; the enzyme was purified in house); host or cells: bovine pituitaries
Source text: as §1, §9, §10, §6, §7, §8

[6] = molecular target: T1, multicatalytic proteinase complex (MPC); assay: Histone H3 degradation by the MPC, HPLC; format: biochemical, bovine; conditions: 50 μM inhibitor
Procedure: as §1, §2, §3
Histone H3 used for testing the proteolytic activity of MPC was purified from a crude histone VIII S fraction (obtained from Sigma Chemical Co. St. Louis, Mo.) by HPLC. The material was applied to a Delta Pak C4-300A semipreparative column (15 μm; 7.8 mm×300 mm) equilibrated with 30% acetonitrile (v/v) in water solution, containing 0.1% trifluoroacetic acid (v/v). Elution was carried out at a flow rate of 4 ml/min with a linear, 50 min. gradient established between 30% and 50% acetonitrile (v/v) in water, each containing 0.1% trifluoroacetic acetic acid (v/v). The main protein peak was collected and the solvent was removed under reduced pressure. The protein was dissolved in water at a concentration of 1.85 mg/ml and used for experiments. The purified histone H3 was subjected to HPLC on an analytical Deltapak column (C4; 5 μm; 300 A; 3.9×150 mm; Waters) with a linear gradient established between 30 and 50% acetonitrile (v/v) in water, containing 0.1% trifluoroacetic acid (v/v). […]

[7] = molecular target: T5, BrAAP component of the multicatalytic proteinase complex (MPC); conditions: cited from earlier work
[8] = molecular target: T3, PGPH component of the multicatalytic proteinase complex (MPC); conditions: cited from earlier work; for increase of the PGPH activity: low concentrations of SDS (0.02%) or fatty acids, depending on the substrate concentration
[9] = molecular target: T6, BRAAP component of the MPC (Bos taurus, UniProt Q2TBP0+Q32KL2+Q3MHN0); conditions: data from Orlowski et al., Biochemistry 32:1563-1572 (1993), cited from earlier work; for Km: [S] 1.6-8.0
T6 construct: The MPC was isolated from frozen bovine pituitaries; tissue PelFreeze, Inc. (Rogers, Ark.) (supplier of the tissue; the enzyme was purified in house); host or cells: bovine pituitaries

[10] = substrate Cbz-Leu-Leu-Glu-2NA (0.2 to 0.6 mill), inhibitor concentration giving 50% inhibition, read-out: IC50, PGPH component
[11] = substrate Cbz-Gly-Pro-Ala-Leu-Gly-pAB (1 to 4 mill), mean of 3 to 6 experiments ± SEM, read-out: Ki, BRAAP component

- Ki [2]: 1850 ± 750 µM
- Ki [4]: 406 ± 54 µM
- Ki [5, 11]: 305 ± 77 µM
Compound: C[C@H](NC(=O)[C@@H]1CCCN1C(=O)CNC(=O)OCc1ccccc1)C(=O)N[C@H](C=O)Cc1ccccc1 [Cbz-Gly-Pro-Ala-Phe-CHO] (Cbz-GPAF-aldehyde)

- inhibition at 50 µM ([6]; all histone H3 concentrations, read-out: inhibition of the rate of histone H3 degradation): ~80%
- inhibition at 50 µM ([6]; histone H3 185 μg/ml, MPC 2.5 μg, read-out: Inhibition, histone H3 degradation): 77%
- inhibition at 50 µM ([6]; histone H3 370 μg/ml, MPC 2.5 μg, read-out: Inhibition, histone H3 degradation): 76%
- inhibition at 50 µM ([6]; histone H3 740 μg/ml, MPC 2.5 μg, read-out: Inhibition, histone H3 degradation): 86%
- inhibition at 50 µM ([1]; β-casein 160 μg/ml, no Mg2+): 94%
- inhibition at 50 µM ([1]; β-casein 1000 μg/ml, 20 mM Mg2+): 89%
- Ki for ChT-L activity, times higher than that for the other three activities ([2]; ChT-L vs BrAAP, SNAAP, PGPH): ~20 times
- Ki [2]: 40.5 ± 8.8 µM
- IC50 ([3]; substrate concentration of 0.64 mM, absence of SDS, read-out: IC50, PGPH activity): 3.1 µM
- Ki [4]: 2.3 ± 0.24 µM
- Ki ([5]; MPC exposed to DCI (10 μM), average of three determinations, read-out: Ki, BrAAP activity of the DCI-treated enzyme): 1.67 µM
- Ki [5, 11]: 1.5 ± 0.17 µM
Compound: CC(C)C[C@@H](C=O)NC(=O)[C@H](Cc1ccccc1)NC(=O)[C@@H]1CCCN1C(=O)CNC(=O)OCc1ccccc1 [Cbz-Gly-Pro-Phe-Leu-CHO] (Cbz-GPFL-aldehyde)

- Ki [2]: 331 ± 22 µM
- IC50 [3, 10]: 62 µM
- Ki [4]: 24 ± 0.84 µM
- Ki [5, 11]: 47.3 ± 4.9 µM
Compound: CC(C)[C@@H](C=O)NC(=O)[C@H](Cc1ccccc1)NC(=O)[C@@H]1CCCN1C(=O)CNC(=O)OCc1ccccc1 [Cbz-Gly-Pro-Phe-Val-CHO] (Cbz-GPFV-aldehyde)

- Ki [2]: 16.4 ± 2.7 µM
- Ki [4]: 36.7 ± 3.6 µM
- Ki [5, 11]: 104 ± 2.3 µM
Compound: CC(C)C[C@@H](C=O)NC(=O)[C@H](C)NC(=O)CNC(=O)[C@@H]1CCCN1C(=O)OCc1ccccc1 [Cbz-Pro-Gly-Ala-Leu-CHO] (Cbz-PGAL-aldehyde)

Second part, the compound before the results:

Compound: CC(C)C[C@@H](C=O)NC(=O)[C@H](C)NC(=O)[C@@H]1CCCN1C(=O)CNC(=O)OCc1ccccc1 [Cbz-Gly-Pro-Ala-Leu-CHO] (Cbz-GPAL-aldehyde)
- β-casein substrate remaining intact ([1]; 200 μM inhibitor, 30 min incubation, β-casein 200 μg, 20 mM Mg2+, MPC 30 μg): ~90%
- Ki [2]: 471 ± 48 µM
- IC50 [3, 10]: 60 µM
- Ki [4]: 17.2 ± 3.4 µM
- Ki [5, 11]: 13.9 ± 1.9 µM

Compound: O=c1oc(Cl)c(Cl)c2ccccc12 [DCI, 3,4-dichloroisocoumarin]
- activation of the BrAAP component ([7]; treatment of the MPC with DCI (10 μM)): 10 fold
- inactivation of the PGPH activity ([8]; DCI (10 μM)): almost complete inactivation

Compound: CCCCCCCCCCCCOS(=O)(=O)[O-].[Na+] [SDS, sodium dodecyl sulfate]
- activation of the BrAAP component ([7]; treatment of the MPC with SDS, synthetic substrates): ~50 fold
- increase of the PGPH activity [8]: ~10 fold

Compound: CCCCCCCCCCCC(=O)O [lauric acid]
- increase of the PGPH activity [8]: ~10 fold

Compound: Cbz-Gly-Pro-Ala-Leu-Ala-pAB
- Km [9]: 6.7 mM
- kcat [9]: 5.2 s⁻¹
- kcat /Km [9]: 780 s⁻¹ M⁻¹

Compound: Cbz-Gly-Pro-Ala-Leu-Gly-p-aminobenzoate [Cbz-Gly-Pro-Ala-Leu-Gly-pAB]
- Km [9]: 5.2 mM
- kcat [9]: 3.75 s⁻¹
- kcat /Km [9]: 720 s⁻¹ M⁻¹
